The source of these data is ChEMBL document CHEMBL1201862, “PubChem BioAssay data set” (2004).

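Following 48 hours of exposure in 96-well plates, responses at five concentrations were used to interpolate endpoints linearly. Here, GI50 denotes the concentration required for 50% inhibition of growth.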 The source made the active and inactive calls. No stated cut-off is given here; in the data, active = GI50 up to about 1.1 µM and inactive = higher. A value given as a limit tells only on which side of the number the result lay.

Experiment in all cases: NCI-60 cell line screen, 48 h
The subject of assay [1] is HOP-62.
The subject of assay [2] is NCI-H226.
For assay [3], the system named is M19-MEL.
The subject of assay [4] is SN12C.
In assay [5] the test system is HCC 2998.
The test system of assay [6] is A549.
Assay [7] deals with CCRF-CEM.
For assay [8], the system named is HCT-15.
Assay [9] deals with A498.
Assay [10] has as its system OVCAR-4.
Assay [11] deals with 786-0.
Assay [12] concerns RXF 393.
Assay [13] concerns NCI-H23.
The test system of assay [14] is U-251.
The subject of assay [15] is HL-60.
The test system of assay [16] is OVCAR-8.
Assay [17] deals with SNB-75.
Assay [18] has as its system SK-OV-3.
Assay [19] deals with Hs-578T.
Assay [20] has as its system NCI/ADR-RES.

In the case of `CCOc1ccc(C(CN2CCOCC2)C(C)=O)cc1OC` (configuration not stated), the GI50 is 21 µM (inactive) in assay [1]; 17.7 µM (inactive) in assay [2]; 18.9 µM (inactive) in assay [3]; 17.4 µM (inactive) in assay [4]; 18.4 µM (inactive) in assay [5]; 24.6 µM (inactive) in [6]. For the same compound, the GI50 in assay [7] was 9.4 µM (inactive); in [8], 10 µM; in [9] it was 26.5 µM (inactive); in assay [10] it was 18.3 µM (inactive); in assay [11], 3.53 µM (inactive); in [12], 21 µM (inactive). In addition, the GI50 in assay [13] is 18.6 µM (inactive); in assay [14] it was 18 µM (inactive); in assay [15], 3.78 µM (inactive); in [16] it was 20.1 µM (inactive); in assay [17], 18.7 µM (inactive).
For the compound `CCOP(=O)(OCC)C1C(=O)O[C@H]2CCCC[C@@H]12` (some centres not stated), the GI50 in assay [1], in assay [3], in assay [4], in assay [5], in assay [6] and in assay [7] was > 100 µM (inactive) throughout. Besides, the GI50 in assay [18] was > 100 µM (inactive); in [8] it was over 100 µM; in assay [9], > 100 µM (inactive); in [10], > 100 µM (inactive); in assay [11] it was > 100 µM (inactive); in assay [12], > 100 µM (inactive). Also, the GI50 in assay [13], in assay [14], in [16] and in assay [17] was > 100 µM (inactive) throughout.
For the compound `CN1CCCc2nc3ccccc3n2C1`, the GI50 in assay [1] is > 100 µM (inactive); in assay [2], > 100 µM (inactive); in assay [3] it was > 100 µM (inactive); in assay [4] it was > 100 µM (inactive); in assay [6], > 100 µM (inactive); in assay [7], 88.3 µM (inactive). Further, the GI50 in assay [18] is > 100 µM (inactive); in assay [8], over 100 µM; in assay [9], > 100 µM (inactive); in [10], > 100 µM (inactive); in assay [11] it was > 100 µM (inactive); in [12] it was > 100 µM (inactive). In addition, the GI50 in assay [13], in assay [14], in assay [15], in assay [16] and in assay [17] was > 100 µM (inactive) each time.
For `CCOc1ccccc1N1C(=O)C(=O)C(c2nc3ccccc3s2)C(=O)C1=O`, the GI50 is 46.8 µM (inactive) in [1]; 69.5 µM (inactive) in [2]; 69.5 µM (inactive) in assay [3]; 79.4 µM (inactive) in assay [4]; > 100 µM (inactive) in [5]; 20 µM (inactive) in assay [6]. For the same compound, the GI50 is 30.9 µM (inactive) in assay [18]; 76.9 µM in [8]; 16.6 µM (inactive) in assay [9]; 3.48 µM (inactive) in [10]; 5.36 µM (inactive) in assay [11]; > 100 µM (inactive) in assay [12]. For the same compound, the GI50 was > 100 µM (inactive) in assay [13], 49.3 µM (inactive) in [14], 41.5 µM (inactive) in [16] and 23.8 µM (inactive) in assay [17].
In the case of `CC1=CC(N2C(=O)C(C)=CC2O)NC1=O` (configuration not stated), the GI50 in assay [1], in assay [2], in assay [3], in [4], in [5] and in [6] was > 100 µM (inactive) throughout. For the same compound, the GI50 in [10], in [11], in [12], in assay [13], in assay [14] and in assay [15] was > 100 µM (inactive) throughout. The GI50 in assay [16] and in assay [17] was > 100 µM (inactive) in each case.
For `Cc1cc(N(CCC#N)CCC#N)ccc1/C=C1/CN(N2C(=O)/C(=C/c3ccc(N(CCC#N)CCC#N)cc3C)N=C2c2ccccc2)C(c2ccccc2)=N1`, the GI50 in assay [1] was 34.6 µM (inactive); in [2], > 100 µM (inactive); in [3], > 100 µM (inactive); in assay [4], > 100 µM (inactive); in assay [5] it was > 100 µM (inactive); in assay [6] it was > 100 µM (inactive). Besides, the GI50 is > 100 µM (inactive) in [7]; over 100 µM in assay [8]; > 100 µM (inactive) in assay [9]; > 100 µM (inactive) in assay [10]; 54.3 µM (inactive) in assay [11]; 28.4 µM (inactive) in [12]. The GI50 in assay [13] is 42.8 µM (inactive); in assay [14] it was 32 µM (inactive); in assay [15] it was > 100 µM (inactive); in [16], > 100 µM (inactive); in [17], 16.9 µM (inactive).
For `COC(=O)C1CCc2nnc(-c3ccccc3)n21` (configuration not stated), the GI50 in [1], in assay [2], in [3], in [4], in assay [5] and in [6] was > 100 µM (inactive) in each case. Moreover, the GI50 in assay [7] was > 100 µM (inactive); in assay [8], over 100 µM; in [9] it was > 100 µM (inactive); in [10] it was > 100 µM (inactive); in assay [11], > 100 µM (inactive); in assay [12], > 100 µM (inactive). Moreover, the GI50 in [13], in assay [14], in [15], in [16] and in assay [17] was > 100 µM (inactive) each time.
As to `COC(=O)CCSC(=O)Nc1ccc(/N=N/c2ccccc2)cc1`, the GI50 in assay [1] is > 100 µM (inactive); in assay [2], 60.4 µM (inactive); in assay [3] it was 45.4 µM (inactive); in assay [4] it was 69 µM (inactive); in assay [5], 23.6 µM (inactive); in [6], 76.4 µM (inactive). Moreover, the GI50 is 50.1 µM (inactive) in assay [7]; > 100 µM (inactive) in assay [18]; 36.1 µM in assay [8]; 29.5 µM (inactive) in assay [9]; 30.4 µM (inactive) in assay [10]; 57.7 µM (inactive) in assay [11]. The GI50 in assay [12] was > 100 µM (inactive); in assay [13] it was 34.2 µM (inactive); in assay [14] it was 37.5 µM (inactive); in [16], 45.8 µM (inactive); in assay [17], 31 µM (inactive).
Turning to `CC1(C)OC2C(=O)OC(COCc3ccccc3)C2O1` (configuration not stated), the GI50 in [1], in assay [2], in assay [3], in assay [4], in [5] and in assay [6] was > 100 µM (inactive) each time. Also, the GI50 in assay [7] is > 100 µM (inactive); in assay [8], over 100 µM; in [9], > 100 µM (inactive); in assay [10] it was > 100 µM (inactive); in [11] it was > 100 µM (inactive); in assay [12], > 100 µM (inactive). Moreover, the GI50 in [13], in assay [14], in [15], in [16] and in [17] was > 100 µM (inactive) in each case.
As for `CN/N=C(\C(=O)Nc1ccc(C(F)(F)F)cc1[N+](=O)[O-])C(c1cnc2ccc([N+](=O)[O-])cc2n1)[N+](=O)[O-]` (configuration not stated), the GI50 in assay [1] is 33 µM (inactive); in assay [2], 17.9 µM (inactive); in assay [3], 10.9 µM (inactive); in [4], > 100 µM (inactive); in assay [5], 49.5 µM (inactive); in [6], 28 µM (inactive). In addition, the GI50 in assay [7] is 9.77 µM (inactive); in assay [18], > 100 µM (inactive); in [8] it was 37.1 µM; in [9] it was 16.7 µM (inactive); in [10], > 10 µM (inactive); in assay [11], 32.4 µM (inactive). In addition, the GI50 in assay [12] was 30.1 µM (inactive); in assay [13], 62.7 µM (inactive); in assay [14] it was 78.5 µM (inactive); in [16], 59 µM (inactive).
In the case of `Cc1cc(CC(=O)NCCO)n(CCO)c(=O)c1`, the GI50 in assay [1], in assay [3], in [4], in assay [5], in [6] and in [7] was > 100 µM (inactive) throughout. The GI50 in assay [10], in assay [11], in assay [12], in [13], in [14] and in assay [15] was > 100 µM (inactive) throughout. Also, the GI50 in [16] was > 100 µM (inactive); in assay [17], 84.1 µM (inactive).
Regarding `Cc1c(F)c(N)c2c(=O)cc(-c3ccc(N)c(F)c3)oc2c1F` [AMINOFLAVONE], the GI50 was 12.7 µM (inactive) in [1]; 3.52 µM (inactive) in assay [2]; 17.1 µM (inactive) in [4]; 38.1 µM (inactive) in [19]; 19 µM (inactive) in [5]; 2.09 µM (inactive) in assay [6]. The GI50 in [7] was 28 µM (inactive); in assay [18], 17.6 µM (inactive); in [8], 33.3 µM; in assay [9], 0.366 µM (active); in assay [10] it was 18.8 µM (inactive); in assay [11] it was 14.2 µM (inactive). The GI50 in assay [12] was 17 µM (inactive); in [13], 19.6 µM (inactive); in [14], 4.2 µM (inactive); in assay [15], 44.8 µM (inactive); in assay [16], 19.6 µM (inactive); in [17], 26.7 µM (inactive). Besides, in [20], the GI50 is 13.9 µM (inactive).
